Values quoted from earlier work as cited in patent US20200078478A1, “Structural molecule of peptide derivative for PSMA-targeting radiotherapy diagnosis and treatment” (priority 2018, published 2020).

Conditions: Lu-177 labeled, clinical treatment

## O=C(O)CC[C@H](NC(=O)N[C@@H](CCCCNC(=O)[C@H](Cc1ccc2ccccc2c1)NC(=O)[C@H]1CC[C@H](CNC(=O)CN2CCN(CC(=O)O)CCN(CC(=O)O)CCN(CC(=O)O)CC2)CC1)C(=O)O)C(=O)O [PSMA-617]
  half-life: 10.8 h
